Measured values taken from patent publication US20240287147A1, “PD-L1 BINDING PEPTIDES AND PEPTIDE COMPLEXES AND METHODS OF USE THEREOF” (Fred Hutchinson Cancer Center, priority 2020, published 2024).

Tested on: PC3 tumors
Details: PC3, second cohort, T cells + 1 nmol or 0.1 nmol

For durvalumab, the “effect on PC3 flank tumors” value was “no effect”.
